Assay results taken from BindingDB's records for doi:10.1021/jm050824x (Chembridge Research Laboratories and Chembridge, 2006).

What was measured:
[1] = Antiproliferative activity against human NPM-ALK positive anaplastic large cell lymphoma karpas299 cell line
[2] = Antiproliferative activity against murine BaF3 cell line expressing NPM-ALK

IC50 [1]	IC50 [2]	Compound
7.5 µM		CN1CCN(CCc2ccc(NC(=O)c3cc(-c4ccc5c(c4)OCO5)c[nH]c3=O)cc2)CC1 [5-benzo[1,3]dioxol-5-yl-2-oxo-1,2-dihydro-pyridine-3-carboxylic acid {4-[2-(4-methyl-piperazin-1-yl)-ethyl]-phenyl}-amide]
11.2 µM	> 25 µM	CN1CCN(Cc2ccc(NC(=O)c3cc(-c4ccc5c(c4)OCO5)c[nH]c3=O)cc2)CC1 [5-benzo[1,3]dioxol-5-yl-2-oxo-1,2-dihydro-pyridine-3-carboxylic acid [4-(4-methyl-piperazin-1-ylmethyl)-phenyl]-amide]
	13.7 µM	CN1CCN(CCCc2ccc(NC(=O)c3cc(-c4ccc5c(c4)OCO5)c[nH]c3=O)cc2)CC1 [5-benzo[1,3]dioxol-5-yl-2-oxo-1,2-dihydro-pyridine-3-carboxylic acid {4-[3-(4-methyl-piperazin-1-yl)-propyl]-phenyl}-amide]
